# In ChEMBL document CHEMBL1201862, “PubChem BioAssay data set” (2004):
# Active and inactive are the calls of the source.
# Tests used:
# [1] = target: Melanocortin receptor 4 (Homo sapiens, UniProt P32245); assay: inhibitors of MC4R cAMP signaling – cell-based, TR-FRET, biased antagonists, dose response (AID 602298); type: functional;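 note: antagonist potency against agonist-stimulated cAMP production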
# [2] = target: Alkaline phosphatase, placental type (Homo sapiens, UniProt P05187); assay: human placental alkaline phosphatase inhibition – biochemical, luminescence, confirmation (AID 1512); type: functional
# [3] = cAMP pathway inhibition in counterscreen cell line – TR-FRET cAMP detection, counter-screen for MC4R biased antagonist project, dose response (AID 602305); type: functional, cell-based;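 note: U2OS cells stimulated with forskolin near its EC80 as the cAMP inducer; potency is for inhibition of forskolin-stimulated cAMP signaling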
# [4] = microbe, parasite or virus in culture; type: functional; details: Mycobacterium tuberculosis
# [5] = target: T1, Insulin-degrading enzyme (Homo sapiens, UniProt P14735); assay: Dose Response: Fluorescence polarization-based cell-based high throughput dose response assay for inhibitors of insulin-degrading enzyme (IDE). [Related pubchem assays: 434962 (Primary screen (IDE inhibitors in singlicate)), 449730 (Counterscreen (Cytotoxicity in triplicate)), 435028 (Confirmation (IDE inhibitors in triplicate)), 434984 (Summary …; type: functional
# T1 sequence (P14735 whole entry): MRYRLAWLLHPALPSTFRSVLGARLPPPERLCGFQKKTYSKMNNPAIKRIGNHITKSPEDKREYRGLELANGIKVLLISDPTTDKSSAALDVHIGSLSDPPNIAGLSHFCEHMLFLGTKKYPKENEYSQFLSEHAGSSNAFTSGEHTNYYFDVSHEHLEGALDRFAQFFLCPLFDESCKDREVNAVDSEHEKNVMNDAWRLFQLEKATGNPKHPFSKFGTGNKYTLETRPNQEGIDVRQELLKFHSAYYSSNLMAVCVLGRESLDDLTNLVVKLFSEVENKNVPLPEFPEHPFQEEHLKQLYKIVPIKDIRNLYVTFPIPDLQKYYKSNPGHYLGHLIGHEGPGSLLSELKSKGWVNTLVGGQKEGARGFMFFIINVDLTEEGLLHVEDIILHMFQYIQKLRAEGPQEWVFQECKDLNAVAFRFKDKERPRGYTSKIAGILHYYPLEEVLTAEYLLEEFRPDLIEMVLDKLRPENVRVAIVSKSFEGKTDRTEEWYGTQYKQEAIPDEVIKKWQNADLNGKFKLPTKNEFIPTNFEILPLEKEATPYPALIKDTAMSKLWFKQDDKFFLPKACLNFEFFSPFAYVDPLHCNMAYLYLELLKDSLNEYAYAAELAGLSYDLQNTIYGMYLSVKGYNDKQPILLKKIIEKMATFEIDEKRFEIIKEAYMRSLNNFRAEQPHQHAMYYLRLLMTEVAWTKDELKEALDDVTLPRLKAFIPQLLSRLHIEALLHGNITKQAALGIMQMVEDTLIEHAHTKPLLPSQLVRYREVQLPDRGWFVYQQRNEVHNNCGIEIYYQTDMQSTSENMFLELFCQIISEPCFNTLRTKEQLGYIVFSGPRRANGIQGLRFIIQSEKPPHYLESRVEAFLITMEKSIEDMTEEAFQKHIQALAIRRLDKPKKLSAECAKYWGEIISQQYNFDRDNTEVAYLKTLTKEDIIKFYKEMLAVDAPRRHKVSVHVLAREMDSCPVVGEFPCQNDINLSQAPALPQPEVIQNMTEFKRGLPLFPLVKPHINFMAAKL
# [6] = Counterscreen for IDE inhibitors: Luminescence-based cell-based high throughput dose response assay to identify compounds that are cytotoxic to HEK cells. [Related pubchem assays: 434962 (Primary screen (IDE inhibitors in singlicate)), 449730 (Counterscreen (Cytotoxicity in triplicate)), 435028 (Confirmation (IDE inhibitors in triplicate)) …; type: functional; details: HEK293
# [7] = target: T2, Protein skinhead-1 (Caenorhabditis elegans, UniProt P34707); type: functional
# T2 sequence (P34707 whole entry): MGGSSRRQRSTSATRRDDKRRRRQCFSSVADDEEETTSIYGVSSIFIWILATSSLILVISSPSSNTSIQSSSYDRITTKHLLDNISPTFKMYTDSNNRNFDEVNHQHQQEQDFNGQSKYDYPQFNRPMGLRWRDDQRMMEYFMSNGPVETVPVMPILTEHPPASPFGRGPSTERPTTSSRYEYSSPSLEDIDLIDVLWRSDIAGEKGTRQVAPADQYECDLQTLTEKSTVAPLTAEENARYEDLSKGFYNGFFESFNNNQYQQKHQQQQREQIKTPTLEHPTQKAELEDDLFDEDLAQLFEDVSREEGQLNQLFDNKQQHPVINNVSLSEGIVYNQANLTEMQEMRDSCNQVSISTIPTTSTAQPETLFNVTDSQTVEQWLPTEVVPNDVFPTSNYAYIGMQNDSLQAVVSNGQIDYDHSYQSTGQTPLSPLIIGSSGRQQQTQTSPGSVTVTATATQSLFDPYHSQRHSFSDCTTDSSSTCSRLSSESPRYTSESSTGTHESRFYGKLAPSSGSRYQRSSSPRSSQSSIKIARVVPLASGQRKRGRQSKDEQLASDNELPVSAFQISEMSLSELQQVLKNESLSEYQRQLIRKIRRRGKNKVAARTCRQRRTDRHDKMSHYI
# [8] = tested on: HEK293; assay: cells; type: functional, cell-based; details: Homo sapiens
# [9] = Luminescence Cell-Based Dose Retest to Confirm Inhibitors of Cancer Stem Cells. [Related pubchem assays (depositor defined):AID2717, AID2721]; type: functional; details: Homo sapiens
# [10] = tested on: HEK293; assay: inhibition of NOD1-driven NF-kB reporter – cell-based, luminescence, uHTS, primary screen (AID 1578); type: functional; details: Homo sapiens
# [11] = tested on: HEK293; assay: NOD2 signaling inhibitors in MDP-stimulated cells, cell-based, uHTS, luminescence (AID 2001); type: functional; details: Homo sapiens
# [12] = tested on: HEK293; assay: cells; type: functional, cell-based; details: Homo sapiens; remark: listed apart in the source
# [13] = target: T3, Acyl-homoserine lactone acylase PvdQ (Pseudomonas aeruginosa (strain LESB58), UniProt Q9I194); assay: PvdQ acylase enzyme activity blockers – biochemical, fluorescence, plate reader and imaging, cherry-picks, dose response (AID 493231)
# T3 sequence (Q9I194 whole entry): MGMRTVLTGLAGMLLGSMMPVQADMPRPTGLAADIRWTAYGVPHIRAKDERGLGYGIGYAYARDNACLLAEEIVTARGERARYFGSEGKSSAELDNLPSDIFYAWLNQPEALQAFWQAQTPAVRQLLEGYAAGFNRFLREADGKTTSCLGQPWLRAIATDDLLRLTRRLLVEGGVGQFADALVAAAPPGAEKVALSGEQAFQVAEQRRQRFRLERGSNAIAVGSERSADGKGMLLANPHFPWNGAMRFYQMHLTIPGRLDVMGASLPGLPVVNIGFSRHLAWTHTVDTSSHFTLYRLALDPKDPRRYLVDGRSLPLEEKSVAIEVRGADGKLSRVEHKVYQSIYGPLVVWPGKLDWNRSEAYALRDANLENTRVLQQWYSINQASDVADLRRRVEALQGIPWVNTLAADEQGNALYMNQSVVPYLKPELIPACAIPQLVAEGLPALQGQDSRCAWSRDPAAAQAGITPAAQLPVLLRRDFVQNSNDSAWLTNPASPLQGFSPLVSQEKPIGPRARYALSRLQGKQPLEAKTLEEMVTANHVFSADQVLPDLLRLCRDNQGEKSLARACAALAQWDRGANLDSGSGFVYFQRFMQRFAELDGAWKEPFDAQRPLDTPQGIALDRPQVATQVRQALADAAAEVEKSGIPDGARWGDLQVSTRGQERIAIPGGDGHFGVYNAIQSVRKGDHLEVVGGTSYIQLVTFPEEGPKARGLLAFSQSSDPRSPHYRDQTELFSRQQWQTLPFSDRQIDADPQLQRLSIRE
# [14] = target: DNA dC->dU-editing enzyme APOBEC-3G (Homo sapiens, UniProt Q9HC16); assay: Dose Response confirmation of small molecule APOBEC3G DNA Deaminase Inhibitors via a fluorescence-based single-stranded DNA deaminase assay. [Related pubchem assays (depositor defined):AID493012, AID493028]; type: functional
# [15] = target: DNA dC->dU-editing enzyme APOBEC-3A (Homo sapiens, UniProt P31941); assay: A3A deaminase inhibition for selectivity – biochemical, dose response (AID 504722); type: functional
# [16] = target: Neurotensin receptor type 1 (Homo sapiens, UniProt P30989); type: functional;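 note: Image-based confirmatory dose-response assay measuring agonist activity at NTR1; NTR1-expressing U2OS osteosarcoma cells imaged for beta-arrestin GFP spot formation; agonist potency where compounds increase beta-arrestin recruitment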
# Neurotensin receptor type 1, sequence (P30989 whole entry): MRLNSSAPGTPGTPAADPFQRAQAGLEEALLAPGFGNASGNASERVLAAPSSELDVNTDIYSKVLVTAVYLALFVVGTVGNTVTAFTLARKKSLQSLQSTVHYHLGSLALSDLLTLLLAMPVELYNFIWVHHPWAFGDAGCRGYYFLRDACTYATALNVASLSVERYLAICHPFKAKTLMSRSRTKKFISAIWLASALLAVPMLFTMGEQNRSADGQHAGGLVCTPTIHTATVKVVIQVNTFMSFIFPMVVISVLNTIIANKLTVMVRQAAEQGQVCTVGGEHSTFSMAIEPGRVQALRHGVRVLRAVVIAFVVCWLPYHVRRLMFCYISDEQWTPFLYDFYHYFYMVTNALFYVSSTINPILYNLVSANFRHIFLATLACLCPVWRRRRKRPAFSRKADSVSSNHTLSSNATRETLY
# Melanocortin receptor 4, sequence (P32245 whole entry): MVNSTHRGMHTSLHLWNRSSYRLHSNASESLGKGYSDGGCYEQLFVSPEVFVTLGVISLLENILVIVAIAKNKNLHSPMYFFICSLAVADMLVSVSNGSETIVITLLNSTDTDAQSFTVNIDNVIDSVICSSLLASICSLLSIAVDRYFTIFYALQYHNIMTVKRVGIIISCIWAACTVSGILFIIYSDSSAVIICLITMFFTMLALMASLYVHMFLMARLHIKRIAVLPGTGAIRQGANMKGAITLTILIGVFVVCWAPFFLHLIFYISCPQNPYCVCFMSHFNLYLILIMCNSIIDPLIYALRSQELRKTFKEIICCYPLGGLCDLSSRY
# DNA dC->dU-editing enzyme APOBEC-3A, sequence (P31941 whole entry): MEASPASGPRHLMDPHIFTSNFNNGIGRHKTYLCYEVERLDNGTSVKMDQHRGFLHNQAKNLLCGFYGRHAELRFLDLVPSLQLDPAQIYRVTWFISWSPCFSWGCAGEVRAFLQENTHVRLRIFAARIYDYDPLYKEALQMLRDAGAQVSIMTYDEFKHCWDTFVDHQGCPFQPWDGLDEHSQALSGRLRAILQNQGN
# Alkaline phosphatase, placental type, sequence (P05187 whole entry): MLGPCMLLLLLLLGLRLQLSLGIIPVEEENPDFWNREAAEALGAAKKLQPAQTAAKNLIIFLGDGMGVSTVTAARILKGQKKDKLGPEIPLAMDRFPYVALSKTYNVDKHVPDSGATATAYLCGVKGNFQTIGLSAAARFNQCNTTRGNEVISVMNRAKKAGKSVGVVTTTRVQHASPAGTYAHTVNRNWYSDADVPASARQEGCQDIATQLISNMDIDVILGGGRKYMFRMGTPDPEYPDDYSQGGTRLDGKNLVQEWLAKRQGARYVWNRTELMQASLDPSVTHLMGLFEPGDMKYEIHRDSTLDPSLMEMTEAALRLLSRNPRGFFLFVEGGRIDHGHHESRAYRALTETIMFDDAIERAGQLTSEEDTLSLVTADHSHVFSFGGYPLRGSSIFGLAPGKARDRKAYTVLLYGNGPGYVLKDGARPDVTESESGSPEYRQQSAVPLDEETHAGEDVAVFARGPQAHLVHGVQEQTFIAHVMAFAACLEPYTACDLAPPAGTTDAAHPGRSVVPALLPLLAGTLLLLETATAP
# DNA dC->dU-editing enzyme APOBEC-3G, sequence (Q9HC16 whole entry): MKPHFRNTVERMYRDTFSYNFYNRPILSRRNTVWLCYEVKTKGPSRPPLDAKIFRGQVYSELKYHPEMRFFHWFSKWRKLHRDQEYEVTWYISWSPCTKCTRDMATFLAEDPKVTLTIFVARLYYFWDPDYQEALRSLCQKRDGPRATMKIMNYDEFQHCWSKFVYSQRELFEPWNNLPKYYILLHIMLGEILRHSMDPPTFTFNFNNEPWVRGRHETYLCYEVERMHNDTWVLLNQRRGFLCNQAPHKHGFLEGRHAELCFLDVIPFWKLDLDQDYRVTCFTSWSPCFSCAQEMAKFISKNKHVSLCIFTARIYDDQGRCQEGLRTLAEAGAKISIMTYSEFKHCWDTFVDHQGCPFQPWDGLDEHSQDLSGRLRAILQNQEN
structure (smiles),measurement,setting,value
c1ccc(Cn2c(CNc3nc4ccccc4n3CCN3CCCCC3)nc3ccccc32)cc1,IC50,[1],> 64.6 µM (inactive)
same,IC50,[2],> 100 µM (inactive)
same,IC50,[3],> 64.6 µM (inactive)
same,CC50,[4],27.1 µM (active)
O=C1NC(=O)N(c2ccccc2)C(=O)/C1=C\C=C\Nc1ccccc1,IC50,[5],> 55.9 µM (not active)
same,IC50,[6],> 55.7 µM (not active)
Clc1ccc(Nc2ncnc3ccc(Br)cc23)cc1,IC50,[7],> 100 µM (inactive)
same,IC50,[8],> 20 µM (inactive)
same,AC50,[9],4.4 µM (active)
same,EC50,[10],3.06 µM (active)
same,IC50,[11],1.47 µM (active)
same,IC50,[12],0.95 µM (active)
same,AC50,[13],37.8 µM (active)
Sc1cnc2ccccc2n1,IC50,[14],7.85 µM (active)
same,IC50,[15],> 100 µM (inactive)
CCCOc1ccc(C(=O)c2ccccc2C(=O)OC2CCOC2=O)cc1OCCC (stereo not drawn),IC50,[1],> 64.6 µM (inactive)
same,EC50,[16],19.8 µM (active)
same,IC50,[3],> 64.6 µM (inactive)
